Assay results as given in US10787447B2, “Pharmaceutical compounds” (Heptares Therapeutics Limited, priority 2018, dated 2020).
Read-outs that look alike come from different tables or passages of the source.

Assays:
[1] = molecular target: T1, human muscarinic M4 receptor (Homo sapiens, UniProt P08173); experiment: Alphascreen Surefire phospho-ERK1/2 functional assay, M4; type: cell-based; details: for EC50: phospho-ERK1/2; for Emax: CHO, read-out: % Emax cf. ACh, M4, CHO cells stably expressing human M4; for Emax / % Emax cf. ACh, M4: Emax relative to ACh
T1 sequence (P08173 1-479): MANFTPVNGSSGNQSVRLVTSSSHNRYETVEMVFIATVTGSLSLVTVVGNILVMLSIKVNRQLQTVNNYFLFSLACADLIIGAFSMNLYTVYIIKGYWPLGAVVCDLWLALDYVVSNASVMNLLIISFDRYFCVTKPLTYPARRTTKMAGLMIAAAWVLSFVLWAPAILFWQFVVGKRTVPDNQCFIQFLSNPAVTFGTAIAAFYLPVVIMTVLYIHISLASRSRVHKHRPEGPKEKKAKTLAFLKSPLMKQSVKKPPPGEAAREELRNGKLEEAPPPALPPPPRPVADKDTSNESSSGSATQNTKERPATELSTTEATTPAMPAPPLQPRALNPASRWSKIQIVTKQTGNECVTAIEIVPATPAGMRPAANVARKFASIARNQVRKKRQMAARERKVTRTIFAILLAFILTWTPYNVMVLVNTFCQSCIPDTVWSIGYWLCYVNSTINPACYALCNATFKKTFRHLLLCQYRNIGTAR
Protocol: (§1) ERK1/2 phosphorylation is a downstream consequence of both Gq/11 and Gi/o protein coupled receptor activation, making it highly suitable for the assessment of M1, M3 (Gq/11 coupled) and M2, M4 receptors (Gi/o coupled), rather than using different assay formats for different receptor subtypes. CHO cells stably expressing the human muscarinic M1, M2, M3 or M4 receptor were plated (25K/well) onto 96-well tissue culture plates in MEM-alpha+10% dialysed FBS. Once adhered, cells were serum-starved overnight. Agonist stimulation was performed by the addition of 5 μL agonist to the cells for 5 min (37° C.). Media was removed and 50 μL of lysis buffer added. After 15 min, a 4 μL sample was transferred to 384-well plate and 7 μL of detection mixture added.
(§2) Isomer assignment (Isomer 1, Isomer 2, etc.) is based on the retention time of the compound using the separation technique that was performed in the final purification step. By implication, this could be reversed phase HPLC, chiral HPLC or chiral SFC retention time, and this will vary from compound to compound.

[2] = molecular target: T2, human muscarinic M1 receptor (Homo sapiens, UniProt P11229); experiment: Alphascreen Surefire phospho-ERK1/2 functional assay, M1; type: cell-based; details: for EC50: phospho-ERK1/2; for Emax: CHO, read-out: % Emax cf. ACh, M1, CHO cells stably expressing human M1; for Emax / % Emax cf. ACh, M1: Emax relative to ACh
T2 sequence (P11229 1-460): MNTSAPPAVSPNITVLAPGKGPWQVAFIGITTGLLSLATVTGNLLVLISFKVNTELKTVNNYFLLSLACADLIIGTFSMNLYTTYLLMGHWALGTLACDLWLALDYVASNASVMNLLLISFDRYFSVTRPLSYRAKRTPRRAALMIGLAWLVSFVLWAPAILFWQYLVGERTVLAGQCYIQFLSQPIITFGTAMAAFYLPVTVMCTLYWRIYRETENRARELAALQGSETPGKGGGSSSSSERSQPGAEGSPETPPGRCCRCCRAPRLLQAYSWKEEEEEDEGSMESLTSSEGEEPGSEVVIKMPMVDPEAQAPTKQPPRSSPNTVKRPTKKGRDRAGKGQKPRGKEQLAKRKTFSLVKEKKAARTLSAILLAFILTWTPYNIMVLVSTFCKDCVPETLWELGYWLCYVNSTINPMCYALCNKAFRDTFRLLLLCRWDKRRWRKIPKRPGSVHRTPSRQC
Protocol: as §1, with “Functional assays were performed using the Alphascreen Surefire phospho-ERK1/2 assay (Crouch & Osmond, Comb. Chem. High Throughput Screen, 2008). ERK1/2” for “ERK1/2”
as §2, with “For the vast majority of examples at least two diastereomers exist and these have been separated, unless otherwise stated, using the techniques of reversed phase HPLC, chiral HPLC or chiral SFC. Isomer assignment” for “Isomer assignment”

[3] = CHO cells stably expressing human M4, read-out: pEC50 M4 (converted)
[4] = CHO cells stably expressing human M1, read-out: pEC50 M1 (converted)
[5] = CHO cells stably expressing human M4
[6] = CHO cells stably expressing human M1
[7] = pEC50 M4, CHO cells stably expressing human M4
[8] = pEC50 M1, CHO cells stably expressing human M1

| Compound | EC50 [1, 3] [µM] | Emax [1] [%] | EC50 [2, 4] [µM] | Emax [2] [%] | EC50 [1, 7] [µM] | EC50 [2, 8] [µM] | also measured |
| --- | --- | --- | --- | --- | --- | --- | --- |
| CCOC(=O)N1C2COCC1CC(N1CCC(c3cccc(OC)n3)CC1)C2 (single isomer, unassigned) [Example 2-1 Isomer 1, Ethyl 7-[4-(6-methoxypyridin-2-yl)piperidin-1-yl]-3-oxa-9-azabicyclo[3.3.1]nonane-9-carboxylate] | > 20 | 17 | 0.251 | 44 | – | – | – |
| CCOC(=O)N1C2COCC1CC(N1CCC(c3cccc(OC)n3)CC1)C2 (single isomer, unassigned) [Example 2-1 Isomer 2, Ethyl 7-[4-(6-methoxypyridin-2-yl)piperidin-1-yl]-3-oxa-9-azabicyclo[3.3.1]nonane-9-carboxylate] | – | – | 0.158 | – | – | – | % Emax cf. ACh, M4 [1, 5]: 20%; % Emax cf. ACh, M1 [2, 6]: 40% |
| CCOC(=O)N1C2COCC1CC(N1CCC(C#N)(c3ccccn3)CC1)C2 (single isomer, unassigned) [Example 3-1 Isomer 1, Ethyl 7-[4-cyano-4-(pyridin-2-yl)piperidin-1-yl]-3-oxa-9-azabicyclo[3.3.1]nonane-9-carboxylate] | 0.129 | 94 | 1.38 | 97 | – | – | – |
| CCOC(=O)N1C2COCC1CC(N1CCC(C#N)(c3ccccn3)CC1)C2 (single isomer, unassigned) [Example 3-1 Isomer 2, Ethyl 7-[4-cyano-4-(pyridin-2-yl)piperidin-1-yl]-3-oxa-9-azabicyclo[3.3.1]nonane-9-carboxylate] | 0.309 | – | – | – | – | – | % Emax cf. ACh, M4 [1, 5]: 78%; % Emax cf. ACh, M1 [2, 6]: 79% |
| CCOC(=O)N1C2COCC1CC(N1CCC3(CC1)CNC(=O)C3)C2 (single isomer, unassigned) [Example 5-2 Isomer 1, Ethyl 7-(3-oxo-2,8-diazaspiro[4.5]dec-8-yl)-3-oxa-9-azabicyclo[3.3.1]nonane-9-carboxylate] | – | 36 | – | – | 0.302 | 0.316 | % Emax cf. ACh, M1 ([2]; CHO cells stably expressing human M1, listed as 5-2 Isomer 1): 82% |
| CCOC(=O)N1C2COCC1CC(N1CCC3(CC1)CNC(=O)O3)C2 (single isomer, unassigned) [Example 5-3 Isomer 1, Ethyl 7-(2-oxo-1-oxa-3,8-diazaspiro[4.5]dec-8-yl)-3-oxa-9-azabicyclo[3.3.1]nonane-9-carboxylate] | 0.832 | 33 | 1.45 | 75 | – | – | – |
| CCOC(=O)N1C2COCC1CC(N1CCC3(CC1)OC(=O)NC3CC)C2 (single isomer, unassigned) [Example 5-4 Isomer 1b, Ethyl 7-(4-ethyl-2-oxo-1-oxa-3,8-diazaspiro[4.5]dec-8-yl)-3-oxa-9-azabicyclo[3.3.1]nonane-9-carboxylate] | – | – | – | – | 0.316 | > 20 | % Emax cf. ACh, M4 ([1]; CHO cells stably expressing human M4, listed as 5-4 Isomer 1b): 30%; % Emax cf. ACh, M1 ([2]; CHO cells stably expressing human M1, listed as 5-4 Isomer 1b): 9% |
| CCOC(=O)N1C2COCC1CC(N1CCC3(CC1)OC(=O)NC3CC)C2 (single isomer, unassigned) [Example 5-4 Isomer 2a, Ethyl 7-(4-ethyl-2-oxo-1-oxa-3,8-diazaspiro[4.5]dec-8-yl)-3-oxa-9-azabicyclo[3.3.1]nonane-9-carboxylate] | – | – | – | – | 0.2 | 0.977 | % Emax cf. ACh, M4 ([1]; CHO cells stably expressing human M4, listed as 5-4 Isomer 2a): 61%; % Emax cf. ACh, M1 ([2]; CHO cells stably expressing human M1, listed as 5-4 Isomer 2a): 75% |
| CCOC(=O)N1C2COCC1CC(N1CCC(N(CC(C)(C)C)C(C)=O)CC1)C2 (single isomer, unassigned) [Example 6-2 Isomer 1, Ethyl 7-{4-[acetyl(2,2-dimethylpropyl)amino]piperidin-1-yl}-3-oxa-9-azabicyclo[3.3.1]nonane-9-carboxylate] | 1.05 | 45 | 0.617 | 71 | – | – | – |
| CCOC(=O)N1C2COCC1CC(N1CCC(C(=O)NC3(C)CCC3)CC1)C2 (single isomer, unassigned) [Example 7-1 Isomer 1, Ethyl 7-{4-[(1-methylcyclobutyl)carbamoyl]piperidin-1-yl}-3-oxa-9-azabicyclo[3.3.1]nonane-9-carboxylate] | 0.324 | – | 0.38 | – | – | – | % Emax cf. ACh, M4 ([1]; CHO cells stably expressing human M4, listed as 7-1 Isomer 1): 76%; % Emax cf. ACh, M1 ([2]; CHO cells stably expressing human M1, listed as 7-1 Isomer 1): 91% |
| CCOC(=O)N1C2COCC1CC(N1CCC(C(=O)NC3(C)CCC3)CC1)C2 (single isomer, unassigned) [Example 7-1 Isomer 2, Ethyl 7-{4-[(1-methylcyclobutyl)carbamoyl]piperidin-1-yl}-3-oxa-9-azabicyclo[3.3.1]nonane-9-carboxylate] | > 20 | – | 1.74 | – | – | – | % Emax cf. ACh, M4 ([1]; CHO cells stably expressing human M4, listed as 7-1 Isomer 2): 54%; % Emax cf. ACh, M1 ([2]; CHO cells stably expressing human M1, listed as 7-1 Isomer 2): 62% |
| CCOC(=O)N1C2COCC1CC(N1CCC(C(=O)NCC(C)C)CC1)C2 (single isomer, unassigned) [Example 7-2 Isomer 1, Ethyl 7-{4-[(2-methylpropyl)carbamoyl]piperidin-1-yl}-3-oxa-9-azabicyclo[3.3.1]nonane-9-carboxylate] | – | 72 | – | 96 | 0.457 | 0.0794 | – |
| CCOC(=O)N1C2COCC1CC(N1CCC(C(=O)N3CCCCCC3)CC1)C2 (single isomer, unassigned) [Example 7-4 Isomer 1, Ethyl 7-[4-(azepan-1-ylcarbonyl)piperidin-1-yl]-3-oxa-9-azabicyclo[3.3.1]nonane-9-carboxylate] | > 20 | 65 | 0.55 | 85 | – | – | – |
| COC(=O)N1C2COCC1CC(N1CCC(N(CC3(C)CCC3)C(C)=O)CC1)C2 (single isomer, unassigned) [Example 8-1 Isomer 1, Methyl 7-(4-(N-((1-methylcyclobutyl)methyl)acetamido)piperidin-1-yl)-3-oxa-9-azabicyclo[3.3.1]nonane-9-carboxylate] | – | – | – | – | 0.155 | 0.0851 | % Emax cf. ACh, M4 ([1]; CHO cells stably expressing human M4, listed as 8-1 Isomer 1): 77%; % Emax cf. ACh, M1 ([2]; CHO cells stably expressing human M1, listed as 8-1 Isomer 1): 123% |
